Active and inactive are the calls of the source. No cut-off for these calls is given here.
Legend:
[1] = biological target: Myc proto-oncogene protein (Homo sapiens) (UniProt P01106); assay: Inhibition of c-Myc in human LY10 cells assessed as reduction in eIF4B expression at 2 nM incubated for 24 hrs by Western blot analysis; assay type: cell-based
[2] = biological target: Myc proto-oncogene protein (Homo sapiens) (UniProt P01106); assay: Inhibition of c-Myc in human LY7 cells assessed as reduction in eIF4B expression at 5 nM incubated for 24 hrs by Western blot analysis; assay type: cell-based
[3] = biological target: Myc proto-oncogene protein (Homo sapiens) (UniProt P01106); assay: Inhibition of c-Myc in human LY10 cells assessed as reduction in E2F1 expression at 2 nM incubated for 24 hrs by Western blot analysis; assay type: cell-based
[4] = biological target: Myc proto-oncogene protein (Homo sapiens) (UniProt P01106); assay: Inhibition of c-Myc in human LY7 cells assessed as reduction in E2F1 expression at 5 nM incubated for 24 hrs by Western blot analysis; assay type: cell-based
[5] = biological target: Serine/threonine-protein phosphatase 2A catalytic subunit alpha isoform (Homo sapiens) (UniProt P67775); assay: Inhibition of PP2A in human LY7 cells assessed as increase in CK1epsilon autophosphorylation by Western blot analysis; assay type: cell-based; conditions: time lower […], time upper 30.0 min
[6] = biological target: T1, Casein kinase I isoform epsilon (Homo sapiens, UniProt P49674); assay: Inhibition of recombinant human full-length N-terminal GST-tagged CK1epsilon expressed in baculovirus infected Sf9 insect cells using casein as substrate measured after 60 mins by ADP-glo kinase assay
Target sequence in this assay (P49674 whole entry, canonical isoform): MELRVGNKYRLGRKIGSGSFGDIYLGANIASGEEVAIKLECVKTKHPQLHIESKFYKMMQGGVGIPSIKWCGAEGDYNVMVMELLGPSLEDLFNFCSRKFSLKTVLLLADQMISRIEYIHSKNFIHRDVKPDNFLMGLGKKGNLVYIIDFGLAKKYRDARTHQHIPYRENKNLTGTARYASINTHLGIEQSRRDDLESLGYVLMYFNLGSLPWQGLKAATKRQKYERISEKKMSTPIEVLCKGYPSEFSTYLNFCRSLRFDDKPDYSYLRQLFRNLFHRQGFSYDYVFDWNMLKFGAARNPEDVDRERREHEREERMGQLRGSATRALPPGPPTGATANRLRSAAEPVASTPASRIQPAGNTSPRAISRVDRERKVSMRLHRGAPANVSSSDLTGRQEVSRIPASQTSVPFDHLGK

[7] = biological target: T1, Casein kinase I isoform epsilon; assay: Inhibition of CK1epsilon in human LY7 cells assessed as reduction in CK1epsilon autophosphorylation at 1 uM preincubated for 1 hr followed by addition of PP2A inhibitor calyculin A and measured after 15 to 60 mins by Western blot analysis; assay type: cell-based; conditions: time lower 75.0 min, time upper […]
Target sequence in this assay (P49674 whole entry, looked up, canonical isoform): as the sequence (P49674 whole entry, canonical isoform) above

[8] = biological target: T1, Casein kinase I isoform epsilon; assay: Inhibition of CK1epsilon in human LY7 cells assessed as reduction in c-Myc expression at 15 to 50 uM measured after 24 hrs by Western blot analysis; assay type: cell-based; conditions: dose 15-50 µM
Target sequence in this assay (P49674 whole entry, looked up, canonical isoform): as the sequence (P49674 whole entry, canonical isoform) above

[9] = biological target: T1, Casein kinase I isoform epsilon; assay: Inhibition of CK1epsilon in human OCILY7 cells transfected with c-myc-5'-UTR-luciferase construct assessed as reduction in c-myc translation at 15 uM incubated for 24 hrs by luciferase reporter gene assay; assay type: cell-based
Target sequence in this assay (P49674 whole entry, looked up, canonical isoform): as the sequence (P49674 whole entry, canonical isoform) above

[10] = biological target: T1, Casein kinase I isoform epsilon; assay: Inhibition of CK1epsilon in human LY7 cells assessed as reduction in 4E-BP1 phosphorylation at 25 uM incubated for 24 hrs in presence of […] inhibitor PF4800567 by Western blot analysis; assay type: cell-based
Target sequence in this assay (P49674 whole entry, looked up, canonical isoform): as the sequence (P49674 whole entry, canonical isoform) above

[11] = biological target: T1, Casein kinase I isoform epsilon; assay: Inhibition of CK1epsilon in human LY7 cells assessed as reduction in c-Myc expression at 25 uM incubated for 24 hrs in presence of […] inhibitor PF4800567 by Western blot analysis; assay type: cell-based
Target sequence in this assay (P49674 whole entry, looked up, canonical isoform): as the sequence (P49674 whole entry, canonical isoform) above

[12] = biological target: T1, Casein kinase I isoform epsilon; assay: Inhibition of recombinant human full-length N-terminal GST-tagged CK1epsilon expressed in baculovirus infected Sf9 insect cells at 50 uM using casein as substrate measured after 60 mins by ADP-glo kinase assay relative to control
Target sequence in this assay (P49674 whole entry, looked up, canonical isoform): as the sequence (P49674 whole entry, canonical isoform) above

[13] = biological target: T1, Casein kinase I isoform epsilon; assay: Inhibition of CK1epsilon in human LY7 cells assessed as reduction in CK1epsilon autophosphorylation at 10 to 25 uM preincubated for 1 hr followed by addition of PP2A inhibitor calyculin A and measured after 15 to 60 mins by Western blot analysis; assay type: cell-based; conditions: dose 10-25 µM, time lower 75.0 min, time upper […]

Chain of Myc proto-oncogene protein (Homo sapiens) (P01106 whole entry, canonical isoform): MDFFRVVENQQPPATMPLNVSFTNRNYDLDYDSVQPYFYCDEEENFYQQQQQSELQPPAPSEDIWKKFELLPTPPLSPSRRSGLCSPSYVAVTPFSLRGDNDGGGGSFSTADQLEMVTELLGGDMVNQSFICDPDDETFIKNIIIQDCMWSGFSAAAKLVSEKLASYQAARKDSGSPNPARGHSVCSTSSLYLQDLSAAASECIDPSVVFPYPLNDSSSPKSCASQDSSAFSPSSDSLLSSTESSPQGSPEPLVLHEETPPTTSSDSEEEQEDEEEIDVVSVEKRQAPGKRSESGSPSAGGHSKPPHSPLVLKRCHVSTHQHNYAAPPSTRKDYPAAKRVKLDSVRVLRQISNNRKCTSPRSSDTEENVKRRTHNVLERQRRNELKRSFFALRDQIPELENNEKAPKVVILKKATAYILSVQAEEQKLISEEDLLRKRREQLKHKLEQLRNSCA
Chain of Serine/threonine-protein phosphatase 2A catalytic subunit alpha isoform (Homo sapiens) (P67775 whole entry, canonical isoform): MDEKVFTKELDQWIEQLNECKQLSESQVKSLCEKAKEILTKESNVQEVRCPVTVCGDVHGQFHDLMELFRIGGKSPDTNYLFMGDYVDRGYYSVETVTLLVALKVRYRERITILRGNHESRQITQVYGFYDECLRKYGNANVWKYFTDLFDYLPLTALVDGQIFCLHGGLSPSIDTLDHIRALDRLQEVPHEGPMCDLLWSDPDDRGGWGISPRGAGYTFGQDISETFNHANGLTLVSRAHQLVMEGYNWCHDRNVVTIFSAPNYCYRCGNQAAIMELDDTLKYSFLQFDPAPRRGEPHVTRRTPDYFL

Row | SMILES | inhibition [1] | inhibition [2] | inhibition [3] | inhibition [4] | EC50 [6] | other results
1 | CC(C)C[C@H](NC(=O)[C@H](CCc1ccccc1)NC(=O)CN1CCOCC1)C(=O)N[C@@H](Cc1ccccc1)C(=O)N[C@@H](CC(C)C)C(=O)[C@@]1(C)CO1 | inactive | inactive | inactive | inactive | – | –
2 | COC[C@@H]([C@H](O)[C@H](O)C(=O)NCC[C@H](C)c1nc(/C=C/C[C@@H]2O[C@]3(C[C@@H](O)[C@@H]2C)O[C@H]([C@H](C[C@H](O)[C@H](C)[C@H](O)[C@H](C)/C=C(C)/C(C)=C/C=C/C(C)=C\C#N)OC)[C@H](OP(=O)(O)O)C3(C)C)co1)N(C)C | – | – | – | – | – | inhibition [5]: Dose-Dependent Effect
3 | Nc1ncnc2c1c(COc1cccc(Cl)c1)nn2C1CCOCC1 | – | – | – | – | 0.0074 µM | inhibition [7]: Active; inhibition [8]: Active; inhibition [9]: inactive; inhibition [10]: Active; inhibition [11]: Active
4 | CC[C@@H](c1nc2cccc(F)c2c(=O)n1-c1ccccc1)n1nc(-c2ccc(OC(C)C)c(F)c2)c2c(N)ncnc21 | – | – | – | – | 81.2 µM | inhibition [12]: < 50%
5 | CC(C)Oc1ccc(-c2nn([C@@H](C)c3nc4cccc(F)c4c(=O)n3-c3ccccc3)c3ncnc(N)c23)cc1F | – | – | – | – | 9.36 µM | inhibition [13]: Active
6 | CC(C)C[C@H](NC(=O)[C@H](Cc1ccccc1)NC(=O)c1cnccn1)B(O)O | inactive | inactive | inactive | inactive | – | –

— ChEMBL document CHEMBL5715954, “Silencing c-Myc translation as a therapeutic strategy through targeting PI3Kδ and CK1ε in hematological malignancies” (Blood, 2017)
